Values of other authors as cited in patent publication US20060257483A1, “Controlled release bupropion dosage forms” (ABRIKA Pharmaceuticals, priority 2005, published 2006).
Counter-ions that a name gives are not always drawn.

Conditions: powder

solubility in water: highly soluble in water
SMILES: CC(NC(C)(C)C)C(=O)c1cccc(Cl)c1 (stereo not shown) [bupropion hydrochloride]
